According to US12528837B2, “Aryl substituted polymyxin derivatives” (priority 2018, dated 2026):
Where “and” joins values, the source holds several entries; their conditions need not be identical. Identical values can stand only once.

Assays:
[1] = Kidney drug level after subcutaneous dose in mouse; format: in vivo; conditions: mouse, in vivo, sc, 17.2 mg/kg
Summary of the method: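 Mice were euthanised four hours after subcutaneous dosing. Both kidneys were trimmed, weighed, snap-frozen, then homogenised with zirconium oxide beads. After centrifugation (13,000 rpm, 6 °C, 10 min), supernatants were analysed by LC-MS-MS.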

HK-2 cells = assay: In vitro renal cell toxicity assay (HK-2); format: cell-based
Summary of the method: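 HK-2 cells seeded 7,500/well, adhered overnight, then exposed to compound for 24 h at 37° C, 5% CO2, with 5% water and 0.5% DMSO. Background-subtracted, vehicle-normalised dose-response fitted with bottom fixed at zero; IC50 reported relative to PMB in the same run, median where repeated.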

[2] = test system: E. coli, K. pneumoniae, P. aeruginosa, A. baumannii strains; assay: Synergy with rifampicin across the MIC panel; format: cell-based; conditions: also against strains with reduced susceptibility to polymyxins
Experimental: (§1) MIC values (μg/mL) were determined by broth microdilution under CLSI conditions.

E. coli ATCC 25922 = assay: MIC alone and with rifampicin, broth microdilution CLSI; format: cell-based; conditions: alone
Experimental: as §1

K. pneumoniae ATCC 13882 = assay: as above; format: cell-based; conditions: alone
Experimental: as §1

[3] = Renal toxicity in mice, separate experiment Example 17 vs PMB; format: in vivo, mouse; conditions: sc 25 mg free base/kg, four doses at 8 hr intervals
Experimental: After the fourth dose animals were transferred into individual metabolic cages and urine collected for 24 hours for determination of urinary biomarkers. After collecting urine mice were euthanised and the kidneys harvested for histopathology.
In a separate experiment Example 17 was compared with PMB.

A. baumannii NCTC13301 = assay: Neutropenic murine thigh model; format: in vivo; conditions: CD-1 mice thigh, IV 0.5 mg/kg at 2, 6, 10 h, counts at 16 h, PMB in parentheses, listed as PMB
Experimental: After rendering neutropenic (cyclophosphamide 150 mg/kg d-4, 100 mg/kg d-1), CD-1 mice (n=5) were inoculated in each thigh with approx. 10^5 cfu of A. baumannii NCTC13301. […] At 16 h post-infection mice were euthanised and thighs prepared for colony counts.
(§2) In each case the decrease observed with PMB in the same experiment is shown in parentheses: […]

K. pneumoniae ATCC 43816 = assay: Neutropenic murine thigh model; format: in vivo; conditions: CD-1 mice thigh, counts at 16 h, PMB in parentheses
Experimental: After rendering neutropenic (cyclophosphamide 150 mg/kg d-4, 100 mg/kg d-1), CD-1 mice (n=5) were inoculated in each thigh with approx. 10^5 cfu of K. pneumoniae ATCC43816. Mice were dosed IV with appropriate doses of PMB sulphate or test compound (equivalent weight free base) at 2, 6 and 10 h post-infection. At 16 h post-infection mice were euthanised and thighs prepared for colony counts.
as §2

[4] = test system: K. pneumoniae IHMA 520329 (SHV-12, KPC-2); format: cell-based; conditions: SHV-12, KPC-2; alone
Experimental: as §1

[5] = test system: K. pneumoniae IHMA 580884; format: cell-based; conditions: alone
Experimental: as §1

E. coli CDF-1 (MCR-1) = format: cell-based; conditions: MCR-1; alone
Experimental: as §1

A. baumannii IHMA 517303 = format: cell-based; conditions: alone
Experimental: as §1

[6] = test system: A. baumannii NCTC 13301 (OXA-23); format: cell-based; conditions: OXA-23; alone
Experimental: as §1

[7] = test system: P. aeruginosa IHMA 517175; format: cell-based; conditions: alone
Experimental: as §1

P. aeruginosa ATCC 27853 [8] = format: cell-based; conditions: alone
Experimental: as §1

[9] = test system: P. aeruginosa IHMA 644636; format: cell-based; conditions: alone
Experimental: as §1

[10] = test system: A. baumannii IHMA 851735 (OXA-23); format: cell-based; conditions: OXA-23; alone
Experimental: as §1

E. coli IHMA 940398 = format: cell-based; conditions: alone
Experimental: as §1

[11] = Renal toxicity of Example 24 vs PMB after four doses in mouse; format: in vivo, mouse; conditions: for Urine β-2 microglobulin: CD-1 mice, urine 24 h, normalized to urinary creatinine, mean
Experimental: Immediately after the fourth dose mice were transferred to metabolic cages and urine collected for 24 h. for determination of urinary biomarkers. After urine collection mice were sacrificed for renal histopathology.
The urine biomarkers were normalized to urinary creatinine.

P. aeruginosa ATCC 27853 [12] = assay: Neutropenic murine lung model; format: in vivo; conditions: CD-1 mice lung, counts at 16 h, PMB in parentheses
Experimental: After rendering neutropenic (cyclophosphamide 200 mg/kg d-4, 150 mg/kg d-1). CD-1 mice (n=8) were inoculated intranasally with 10^4-10^5 cfu per lung of P. aeruginosa ATCC27853. Mice were dosed SC with appropriate doses of PMB sulphate or test compound (equivalent weight free base) at 2, 6 and 10 h post-infection. At 16 h post-infection mice were euthanised and lungs prepared for colony counts.
as §2

Substance: Polymyxin B [reference compound]
- Drug Level in Kidney 4 h [1]: 128 µg/g kidney
- Drug Level in Kidney 16 h [1]: 18 µg/g kidney
- Cytotoxicity (measured IC50 relative to that recorded for Polymyxin B) (HK-2 cells): 1.0
- Synergy with rifampicin (in words) [2]: strong synergy with rifampicin
- MIC E. coli ATCC 25922 (E. coli ATCC 25922): 0.25 µg/mL
- MIC K. pneumoniae ATCC 13882 (K. pneumoniae ATCC 13882): 0.25 µg/mL
- Basophilic tubules (histopathology) ([3]; animals per grade): 4 minimal/1 mild
- Tubular degeneration/necrosis (histopathology) ([3]; animals per grade): 4 normal/1 minimal
- Albumin, elevation compared with vehicle control ([3]; urine): 29×
- Cystatin C, elevation compared with vehicle control ([3]; urine): 2×
- KIM-1, elevation compared with vehicle control ([3]; urine): 771×
- Log drop in cfu Compared to Vehicle Control (A. baumannii NCTC13301): 4.2 and 4.1
- Log drop in cfu Compared to Vehicle Control (K. pneumoniae ATCC 43816; IV 0.25 mg/kg at 2, 6, 10 h): 0.2 (0.2)
- Log drop in cfu Compared to Vehicle Control (K. pneumoniae ATCC 43816; IV 1 mg/kg at 2, 6, 10 h): 5.2
- Log drop in cfu Compared to Vehicle Control (K. pneumoniae ATCC 43816; IV 2 mg/kg at 2, 6, 10 h): 4.0
- Log drop in cfu Compared to Vehicle Control (K. pneumoniae ATCC 43816; IV 4 mg/kg at 2, 6, 10 h): 5.6
- Log drop in cfu Compared to Vehicle Control (K. pneumoniae ATCC 43816; IV […] at 2, 6, 10 h): 0.2
- MIC K. pneumoniae IHMA 520329 [4]: 64 µg/mL
- MIC K. pneumoniae IHMA 580884 [5]: 8 µg/mL
- MIC E. coli CDF-1 (E. coli CDF-1 (MCR-1)): 4 µg/mL
- MIC A. baumannii IHMA 517303 (A. baumannii IHMA 517303): >64 µg/mL
- MIC A. baumannii NCTC 13301 [6]: 0.25 µg/mL
- MIC P. aeruginosa IHMA 517175 [7]: 8 µg/mL
- MIC P. aeruginosa ATCC 27853 (P. aeruginosa ATCC 27853 [8]): 0.5 µg/mL
- MIC P. aeruginosa IHMA 644636 [9]: 32 µg/mL
- MIC A. baumannii IHMA 851735 [10]: 8 µg/mL
- MIC E. coli IHMA 940398 (E. coli IHMA 940398): 16 µg/mL
- Tubular Degeneration/necrosis (histopathology, animals affected) ([11]; CD-1 mice (n=5), sc 25 mg/kg four times at 8 h intervals): 5/5 (2 min/
- Urine β-2 microglobulin ([11]; sc 25 mg/kg four times at 8 h intervals): 43.83
- Urine β-2 microglobulin ([11]; sc […] four times at 8 h intervals): 3.43
- Basophilic Tubules (cortex) (animals affected) ([11]; mouse, in vivo, sc, 25 mg/kg): 5/5 (1 min/
- Mitotic Figures increased (animals affected) ([11]; mouse, in vivo, sc, 25 mg/kg): 3/5
- Urine Albumin ([11]; mouse, in vivo, sc, 25 mg/kg): 7.73
- Urine Cystatin C ([11]; mouse, in vivo, sc, 25 mg/kg): 44.51
- Urine Kim-1 ([11]; mouse, in vivo, sc, 25 mg/kg): 3,446.42
- Urine NGAL ([11]; mouse, in vivo, sc, 25 mg/kg): 4.37
- Log drop in cfu Compared to Vehicle Control (P. aeruginosa ATCC 27853 [12]; SC 5 mg/kg at 2, 6, 10 h): 0 (0)
- Log drop in cfu Compared to Vehicle Control (P. aeruginosa ATCC 27853 [12]; SC 7.5 mg/kg at 2, 6, 10 h): 1.0
- Log drop in cfu Compared to Vehicle Control (P. aeruginosa ATCC 27853 [12]; SC 10 mg/kg at 2, 6, 10 h): 0.7
